What was measured:
rat orexin 1 receptor = rat orexin 1 receptor (Rattus norvegicus, UniProt P56718); test: Rat orexin 1 receptor radioligand binding (competitive); conditions: HEK293 cells stably expressing rat orexin 1 receptor; 4 nM radioligand; averages of 2-20 runs; read-out: rOX1 Ki
Protocol: (§1) The in vitro affinity of the compounds of the invention for the rat/human orexin 1 and human orexin 2 receptors was determined by competitive radioligand binding using [^3H](1-(5-(2-fluoro-phenyl)-2-methyl-thiazol-4-yl)-1-((S)-2-(5-phenyl-(1,3,4)oxadiazol-2-ylmethyl)-pyrrolidin-1-yl)-methanone) (Langmead et al., 2004) and [^3H]EMPA (n-ethyl-2[96-methoxy-pyridin-3-yl)-(toluene-2-sulfonyl)-amino]-N-pyridin-3-ylmethyl acetamide), respectively (Langmead et al., 2004, British Journal of Pharmacology 141:340-346; Malherbe et al., 2004, British Journal of Pharmacology 156:1326-41).
(§2) Data are analyzed using pc-Sandy macro and graphed on Graphpad Prism 5. For analysis, each concentration point is averaged from triplicate values and the averaged values are plotted on Graphpad Prism. The IC50 was determined by applying the following equation (GraphPad Prism 5.0, San Diego) for one site competition where X=log (concentration) and Y=specific binding. Top denotes the total [^3H]— (1-(5-(2-fluoro-phenyl)-2-methyl-thiazol-4-yl)-1-((S)-2-(5-phenyl-(1,3,4)oxadiazol-2-ylmethyl)-pyrrolidin-1-yl)-methanone) binding, bottom denotes the nonspecific [^3H]— (1-(5-(2-fluoro-phenyl)-2-methyl-thiazol-4-yl)-1-((S)-2-(5-phenyl-(1,3,4)oxadiazol-2-ylmethyl)-pyrrolidin-1-yl)-methanone) binding. Graphpad Prism calculates Ki value from IC50 and the pre-determined Kd values for [^3H]— (1-(5-(2-fluoro-phenyl)-2-methyl-thiazol-4-yl)-1-((S)-2-(5-phenyl-(1,3,4)oxadiazol-2-ylmethyl)-pyrrolidin-1-yl)-methanone) and [^3H]-EMPA. The Ki for each compound is then uploaded into 3DX. Each run comprises individual compounds in triplicate. The data in Table 1 and Table 2 represent averages from between 2-20 runs
(§3) Rat and Human Orexin 1 Receptor Radioligand Binding Studies
(§4) Human Embryonic Kidney 293 cells (HEK293) stably expressing rat orexin 1 receptor (Genebank accession number NM_001525) or Chinese ovary cells (CHO) stably expressing human orexin 1 receptor (Genebank accession number […]) were grown to confluency in DMEM (Hyclone, cat # SH30022), 10% FBS, 1× Pen/Strep, 1× sodium pyruvate, 10 mM HEPES, 600 μg/mL G418 and DMEM/F12 (Gibco, Cat #11039), 10% FBS, 1× Pen/Strep, 600 μg/mL G418 media, respectively on 150 cm^2 tissue culture plates, washed with 5 mM EDTA in PBS (HyClone Dulbecco's Phosphate Buffered Saline 1× with Calcium and Magnesium, Cat # SH30264.01, hereafter referred to simply as PBS) and scraped into 50 ml tubes. After centrifugation (2K×G, 5 min at 4° C.), the supernatant was aspirated and the pellets frozen and stored at −80° C. Cells were resuspended in PBS in the presence of 1 tablet of protease inhibitor cocktail (Roche, Cat. #11836145001) per 50 mL. […] Competition binding experiments in 96 well polypropylene plates were performed using [^3H]— (1-(5-(2-fluoro-phenyl)-2-methyl-thiazol-4-yl)-1-((S)-2-(5-phenyl-(1,3,4)oxadiazol-2-ylmethyl)-pyrrolidin-1-yl)-methanone) (Moraveck Corporation, specific activity=35.3 Ci/mmol), diluted to a 10 nM concentration in PBS (4 nM final). Compounds were solubilized in 100% DMSO (Acros Organics, Cat. #61042-1000) and tested over a range of 7 concentrations (from 0.1 nM to 10 μM). The final concentration of DMSO in the reactions is equal to or less than 0.1%. Total and nonspecific binding was determined in the absence and presence of 10 μM almorexant. The total volume of each reaction is 200 μL (20 μL of diluted compounds, 80 μL of [^3H]— (1-(5-(2-fluoro-phenyl)-2-methyl-thiazol-4-yl)-1-((S)-2-(5-phenyl-(1,3,4)oxadiazol-2-ylmethyl)-pyrrolidin-1-yl)-methanone) diluted in PBS and 100 μL of the cell suspension). Reactions were run for 60 min at room temperature and terminated by filtration through GF/C filter plates (PerkinElmer, Cat. #6005174) presoaked in 0.3% polyethylenimine using the cell harvester (PerkinElmer Filtermate). The plates were washed 3 times by aspirating 30 ml PBS through the plates. Plates were dried in 55° C. oven for 60 min, scintillation fluid was added, and the radioactivity was counted on a Topcount (Packard). […]

human orexin 1 receptor = human orexin 1 receptor (Homo sapiens (Human), UniProt O43613); test: Human orexin 1 receptor radioligand binding (competitive); conditions: CHO cells stably expressing human orexin 1 receptor; 4 nM radioligand; averages of 2-20 runs; read-out: hOX1 Ki
Chain of human orexin 1 receptor (O43613 whole entry): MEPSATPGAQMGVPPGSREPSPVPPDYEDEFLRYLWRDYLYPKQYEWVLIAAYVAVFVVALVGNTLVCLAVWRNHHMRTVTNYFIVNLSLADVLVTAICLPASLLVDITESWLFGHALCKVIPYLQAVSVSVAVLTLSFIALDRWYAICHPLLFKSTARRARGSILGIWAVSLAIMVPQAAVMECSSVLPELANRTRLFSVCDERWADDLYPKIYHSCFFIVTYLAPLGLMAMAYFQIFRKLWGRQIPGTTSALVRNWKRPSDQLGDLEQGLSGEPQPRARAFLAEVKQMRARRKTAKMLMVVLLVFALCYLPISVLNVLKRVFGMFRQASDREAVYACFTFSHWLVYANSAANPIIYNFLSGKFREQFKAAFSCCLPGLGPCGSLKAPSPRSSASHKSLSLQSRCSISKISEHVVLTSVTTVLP
Protocol: as §1, §2, §3, §4

human orexin 2 receptor = human orexin 2 receptor (Homo sapiens (Human), UniProt O43614); test: Human orexin 2 receptor radioligand binding ([3H]-EMPA competition); conditions: HEK293 stably expressing human orexin 2 receptor; 2 nM [3H]-EMPA; averages of 2-20 runs; read-out: hOX2 Ki
Chain of human orexin 2 receptor (O43614 whole entry): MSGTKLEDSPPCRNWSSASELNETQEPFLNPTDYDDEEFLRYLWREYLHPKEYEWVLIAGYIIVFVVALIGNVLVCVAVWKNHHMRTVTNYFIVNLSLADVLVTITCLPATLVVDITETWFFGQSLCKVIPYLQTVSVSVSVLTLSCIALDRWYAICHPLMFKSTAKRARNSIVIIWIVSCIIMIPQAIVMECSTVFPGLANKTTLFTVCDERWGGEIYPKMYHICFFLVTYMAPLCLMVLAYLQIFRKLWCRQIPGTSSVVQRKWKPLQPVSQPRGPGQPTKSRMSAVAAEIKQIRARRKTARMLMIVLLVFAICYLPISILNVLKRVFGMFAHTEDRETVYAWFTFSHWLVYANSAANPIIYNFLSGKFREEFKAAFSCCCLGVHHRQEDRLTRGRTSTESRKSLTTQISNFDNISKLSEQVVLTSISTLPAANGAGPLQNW
Procedure, shortened: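 Membranes-free whole HEK293 cells stably expressing human OX2 receptor incubated with [3H]-EMPA and compound (7 concentrations, 0.1 nM–10 μM, ≤0.1% DMSO) for 60 min at room temperature; nonspecific binding with 10 μM almorexant. Filtration and scintillation counting; one-site IC50 converted to Ki using predetermined Kd, triplicates averaged over 2-20 runs.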

Q: What does the source list for `CC1C2CC(Oc3ccc(C(F)(F)F)cn3)C(C2)N1C(=O)c1cccc(F)c1-c1ncco1` (racemic) [Example 12, (R/S)-(3-fluoro-2-(oxazol-2-yl)phenyl)(3-methyl-6-((5-(trifluoromethyl)pyridin-2-yl)oxy)-2-azabicyclo[2.2.1]heptan-2-yl)methanone]?
A: Ki (rat orexin 1 receptor): 8 nM; Ki (human orexin 1 receptor): 8 nM

Q: How did the Ki (rat orexin 1 receptor) turn out when `CC1C2CC(Oc3ccc(C(F)(F)F)cn3)C(C2)N1C(=O)c1ccccc1-c1ncc(F)cn1` (racemic) [Example 19, (R/S)-(2-(5-fluoropyrimidin-2-yl)phenyl)(3-methyl-6-((5-(trifluoromethyl)pyridin-2-yl)oxy)-2-azabicyclo[2.2.1]heptan-2-yl)methanone] was run?
A: 10 nM

Q: What about the Ki (human orexin 1 receptor) of the same compound?
A: 29 nM

Q: Which Ki (rat orexin 1 receptor) does the source give for `Cc1ccc(-c2ncccn2)c(C(=O)N2C(C)C3CC(Oc4cnc(C(F)(F)F)cn4)C2C3)n1` (racemic) [Example 44, (R/S)-(6-methyl-3-(pyrimidin-2-yl)pyridin-2-yl)(3-methyl-6-((5-(trifluoromethyl)pyrazin-2-yl)oxy)-2-azabicyclo[2.2.1]heptan-2-yl)methanone] here?
A: 71 nM

Q: What about the Ki (human orexin 1 receptor) of the same compound?
A: 55 nM

Q: Which Ki (rat orexin 1 receptor) does the source give for `CC(C)CC1C2CC(Oc3ccc(C(F)(F)F)cn3)C(C2)N1C(=O)c1ccccc1-n1nccn1` (racemic) [Example 207, (R/S)-[2-isobutyl-5-[[5-(trifluoromethyl)-2-pyridyl]oxy]-3-azabicyclo[2.2.1]heptan-3-yl]-[2-(triazol-2-yl)phenyl]methanone] here?
A: 51 nM

Q: And the Ki (human orexin 1 receptor)?
A: 45 nM

Q: For `CCC1C2CC(Oc3ccc(C(F)(F)F)cn3)C(C2)N1C(=O)c1ccccc1-n1nccn1` (racemic) [Example 213, (R/S)-[2-ethyl-5-[[5-(trifluoromethyl)-2-pyridyl]oxy]-3-azabicyclo[2.2.1]heptan-3-yl]-[2-(triazol-2-yl)phenyl]methanone], which Ki (rat orexin 1 receptor) is on record?
A: 4 nM

Q: What about the Ki (human orexin 1 receptor) of the same compound?
A: 2 nM

Q: For `C[C@@H]1[C@H]2C[C@@H](Oc3ccc(C(F)(F)F)cn3)[C@H](C2)N1C(=O)c1ccc(F)cc1-n1nccn1` (relative stereo) [Example 28, (4-fluoro-2-(2H-1,2,3-triazol-2-yl)phenyl)((1S*,3R*,4R*,6R*)-3-methyl-6-((5-(trifluoromethyl)pyridin-2-yl)oxy)-2-azabicyclo[2.2.1]heptan-2-yl)methanone], which Ki (rat orexin 1 receptor) is on record?
A: 6 nM

Q: And the Ki (human orexin 1 receptor)?
A: 5 nM

Q: With `COc1ccc(C(=O)N2[C@H](C)[C@H]3C[C@@H](Oc4ccc(C(F)(F)F)cn4)[C@@H]2C3)c(-n2nccn2)c1` (relative stereo) [Example 31, (4-methoxy-2-(2H-1,2,3-triazol-2-yl)phenyl)((1S*,3R*,4R*,6R*)-3-methyl-6-((5-(trifluoromethyl)pyridin-2-yl)oxy)-2-azabicyclo[2.2.1]heptan-2-yl)methanone] as the compound, how does the Ki (rat orexin 1 receptor) read?
A: 6 nM

Q: What about the Ki (human orexin 1 receptor) of the same compound?
A: 6 nM

Q: Which Ki (rat orexin 1 receptor) does the source give for `Cc1cnc(C(=O)N2[C@H](C)[C@H]3C[C@@H](Oc4ccc(C(F)(F)F)cn4)[C@@H]2C3)c(-c2ncccn2)c1` (relative stereo) [Example 35, (5-methyl-3-(pyrimidin-2-yl)pyridin-2-yl)((1S*,3R*,4R*,6R*)-3-methyl-6-((5-(trifluoromethyl)pyridin-2-yl)oxy)-2-azabicyclo[2.2.1]heptan-2-yl)methanone] here?
A: 4 nM

Q: And the Ki (human orexin 1 receptor)?
A: 7 nM

Q: How did the Ki (rat orexin 1 receptor) turn out when `C[C@@H]1[C@H]2C[C@@H](Oc3cnc4ccccc4n3)[C@H](C2)N1C(=O)c1cccc(F)c1-n1nccn1` (relative stereo) [Example 184, (3-fluoro-2-(2H-1,2,3-triazol-2-yl)phenyl)((1S*,3R*,4R*,6R*)-3-methyl-6-(quinoxalin-2-yloxy)-2-azabicyclo[2.2.1]heptan-2-yl)methanone] was run?
A: 4 nM

Q: And the Ki (human orexin 1 receptor)?
A: 2 nM

Q: Which results are given for `CC1C2CC(Nc3cnc(C(F)(F)F)cn3)C(C2)N1C(=O)c1cccc(F)c1-c1ncccn1` (single isomer, unassigned) [Example 4, (R/S)-(3-fluoro-2-(pyrimidin-2-yl)phenyl)(3-methyl-6-((5-(trifluoromethyl)pyrazin-2-yl)amino)-2-azabicyclo[2.2.1]heptan-2-yl)methanone]?
A: Ki (rat orexin 1 receptor): 56 nM; Ki (human orexin 1 receptor): 59 nM

Q: Which Ki (human orexin 1 receptor) does the source give for `C[C@@H]1[C@H]2C[C@@H](Oc3ccc(C(F)(F)F)cn3)[C@H](C2)N1C(=O)c1ccccc1-c1cccc(F)n1` [Example 173, [2-(6-fluoro-2-pyridyl)phenyl]-[(1R,2R,4S,5R)-2-methyl-5-[[5-(trifluoromethyl)-2-pyridyl]oxy]-3-azabicyclo[2.2.1]heptan-3-yl]methanone] here?
A: 5 nM

Q: And the Ki (human orexin 2 receptor)?
A: 343 nM

Q: How did the Ki (rat orexin 1 receptor) turn out when `C[C@@H]1[C@H]2C[C@@H](Oc3ccc(C(F)(F)F)cn3)[C@H](C2)N1C(=O)c1cc2ccccc2nc1OCCO` [Example 203, [2-(2-hydroxyethoxy)-3-quinolyl]-[(1R,2R,4S,5R)-2-methyl-5-[[5-(trifluoromethyl)-2-pyridyl]oxy]-3-azabicyclo[2.2.1]heptan-3-yl]methanone] was run?
A: 60 nM

Q: And the Ki (human orexin 2 receptor)?
A: > 10000 nM

Q: How did the Ki (rat orexin 1 receptor) turn out when `C[C@@H]1[C@H]2C[C@@H](Oc3ccc(C(F)(F)F)cn3)[C@H](C2)N1C(=O)c1cc(OCCBr)ccc1-n1nccn1` [Example 204, [5-(2-bromoethoxy)-2-(triazol-2-yl)phenyl]-[(1R,2R,4S,5R)-2-methyl-5-[[5-(trifluoromethyl)-2-pyridyl]oxy]-3-azabicyclo[2.2.1]heptan-3-yl]methanone] was run?
A: 71 nM

Q: What about the Ki (human orexin 2 receptor) of the same compound?
A: 236 nM

Q: How did the Ki (rat orexin 1 receptor) turn out when `C[C@@H]1[C@H]2C[C@@H](Oc3ccc(C(F)(F)F)cn3)[C@H](C2)N1C(=O)c1cc2ccccc2nc1OCCF` [Example 205, [2-(2-fluoroethoxy)-3-quinolyl]-[(1R,2R,4S,5R)-2-methyl-5-[[5-(trifluoromethyl)-2-pyridyl]oxy]-3-azabicyclo[2.2.1]heptan-3-yl]methanone] was run?
A: 22 nM

Q: What about the Ki (human orexin 2 receptor) of the same compound?
A: 5400 nM

Q: `C[C@@H]1[C@H]2C[C@@H](Oc3ccc(C(F)(F)F)cn3)[C@H](C2)N1C(=O)c1c(OCCF)ccc2cccnc12` [Example 206, (7-(2-fluoroethoxy)quinolin-8-yl)((1S,3R,4R,6R)-3-methyl-6-((5-(trifluoromethyl)pyridin-2-yl)oxy)-2-azabicyclo[2.2.1]heptan-2-yl)methanone] was tested. Which Ki (rat orexin 1 receptor) did it give?
A: 7.4 nM

Q: What about the Ki (human orexin 2 receptor) of the same compound?
A: 286 nM

Q: `C[C@@H]1[C@H]2C[C@@H](Oc3ccc(C(F)(F)F)c(F)n3)[C@H](C2)N1C(=O)c1ccccc1-c1ncccn1` [Example 219, (2-(pyrimidin-2-yl)phenyl)((1S,3R,4R,6R)-3-methyl-6-((6-fluoro-5-(trifluoromethyl)pyridin-2-yl)oxy)-2-azabicyclo[2.2.1]heptan-2-yl)methanone] was tested. Which Ki (rat orexin 1 receptor) did it give?
A: 4 nM

Q: What about the Ki (human orexin 2 receptor) of the same compound?
A: 1010 nM

Reference: patent US9611262B2, “Substituted 2-azabicycles and their use as orexin receptor modulators” (JANSSEN PHARMACEUTICA NV, priority 2014, dated 2017)
